Patent US7709636B2, “Pyrazole sulfonylurea compound and herbicide” (Nissan Chemical Industries, Ltd., priority 2004, dated 2010)

How the values were obtained:
[1] = test system: Scirpus juncoides; test: Herbicidal effect test in submerged condition by treatment before weed-generation (1); assay type: in vivo; conditions: 0.64 g/a, water surface treated on day of sowing, 3 weeks after treatment
From the text: (§1) Herbicidal Effect Test in Submerged Condition by Treatment Before Weed-Generation (1)
(§2) After alluvial soil was placed in a styrol cup of 1/30000 are, water was poured therein and mixed, and adjusted to a submerged condition of water depth 4 cm. After seeds of Echinochloa crus-galli, Scirpus juncoides and Monochoria vaginalis were sown in the cup, rice seedlings at 2.5th leaf stage were transplanted. On the day when the seeds were sown, the wettable powder of the present invention prepared according to Formulation Example 1 was diluted with water so as to give a predetermined formulation amount, and the surface of the water was treated with the diluted wettable powder. The plants were grown by putting the cup in a green house at 25 to 30° C., and investigated on herbicidal effect against each weed 3 weeks after treatment with the herbicide according to the following criteria.
(§3) 5 Herbicidal rate 90% or more (almost complete death)
(§4) 4 Herbicidal rate 70% or more and less than 90%
(§5) 3 Herbicidal rate 40% or more and less than 70%
(§6) 2 Herbicidal rate 20% or more and less than 40%
(§7) 1 Herbicidal rate 5% or more and less than 20%
(§8) 0 Herbicidal rate 5% or less (little effect)

[2] = test system: Echinochloa crus-galli; test: as above; assay type: in vivo; conditions: 0.64 g/a, water surface treated on day of sowing, 3 weeks after treatment
From the text: as §1, §2, §3, §4, §5, §6, §7, §8

[3] = test system: Monochoria vaginalis; test: as above; assay type: in vivo; conditions: 0.64 g/a, water surface treated on day of sowing, 3 weeks after treatment
From the text: as §1, §2, §3, §4, §5, §6, §7, §8

[4] = test system: Beta vulgaris (beet); test: Herbicidal effect test by foliage treatment; assay type: in vivo; conditions: 1.6 g/a; foliage treatment after growth of 14 days; 3 weeks after treatment
From the text: (§9) Herbicidal Effect Test by Foliage Treatment
(§10) Sterilized diluvial soil was placed in a plastic box having a size of length 21 cm, width 13 cm and depth 7 cm, seeds of Echinochloa crus-galli, Digitaria adscendes, Setaria viridis, Avena fatua, Black-grass, Abutilon avicennae, Ambrosia elatior, Amaranthus retroflexus, Chenopodium album, Polygonum blumei, Stellaria media, Zea mays, Glycine max, Oryza sativa, Triticum aestivum and Beta vulgaris were sown interspatially, covered with about 1.5 cm of soil, and then the plants were grown by putting the box in a green house at 25 to 30° C. After growth of 14 days, the wettable powder of the present invention prepared according to Formulation Example 1 was diluted with water so as to give a predetermined formulation amount, and the foliage part was uniformly treated with the diluted wettable powder by use of a small-sized spray. The herbicidal effect for each plant was investigated 3 weeks after treatment with the herbicide according to the criteria indicated in Test Example 1.

[5] = test system: corn (Zea mays); test: Herbicidal effect test by foliage treatment; assay type: in vivo; conditions: 1.6 g/a; foliage treatment after growth of 14 days; 3 weeks after treatment
From the text: as §9, §10

[6] = test system: Setaria viridis; test: Herbicidal effect test by foliage treatment; assay type: in vivo; conditions: 1.6 g/a; foliage treatment after growth of 14 days; 3 weeks after treatment
From the text: as §9, §10

[7] = test system: Polygonum blumei; test: Herbicidal effect test by foliage treatment; assay type: in vivo; conditions: 1.6 g/a; foliage treatment after growth of 14 days; 3 weeks after treatment
From the text: as §9, §10

[8] = test system: soybean (Glycine max); test: Herbicidal effect test by foliage treatment; assay type: in vivo; conditions: 1.6 g/a; foliage treatment after growth of 14 days; 3 weeks after treatment
From the text: as §9, §10

[9] = test system: Triticum aestivum (wheat); test: Herbicidal effect test by foliage treatment; assay type: in vivo; conditions: 1.6 g/a; foliage treatment after growth of 14 days; 3 weeks after treatment
From the text: as §9, §10

[10] = test system: Avena fatua; test: Herbicidal effect test by foliage treatment; assay type: in vivo; conditions: 1.6 g/a; foliage treatment after growth of 14 days; 3 weeks after treatment
From the text: as §9, §10

[11] = test system: Stellaria media; test: Herbicidal effect test by foliage treatment; assay type: in vivo; conditions: 1.6 g/a; foliage treatment after growth of 14 days; 3 weeks after treatment
From the text: as §9, §10

[12] = test system: Black-grass; test: Herbicidal effect test by foliage treatment; assay type: in vivo; conditions: 1.6 g/a; foliage treatment after growth of 14 days; 3 weeks after treatment
From the text: as §9, §10

[13] = test system: Chenopodium album; test: Herbicidal effect test by foliage treatment; assay type: in vivo; conditions: 1.6 g/a; foliage treatment after growth of 14 days; 3 weeks after treatment
From the text: as §9, §10

[14] = test system: Ambrosia elatior; test: Herbicidal effect test by foliage treatment; assay type: in vivo; conditions: 1.6 g/a; foliage treatment after growth of 14 days; 3 weeks after treatment
From the text: as §9, §10

[15] = test system: Echinochloa crus-galli; test: Herbicidal effect test by foliage treatment; assay type: in vivo; conditions: 1.6 g/a; foliage treatment after growth of 14 days; 3 weeks after treatment
From the text: as §9, §10

[16] = test system: Digitaria adscendes; test: Herbicidal effect test by foliage treatment; assay type: in vivo; conditions: 1.6 g/a; foliage treatment after growth of 14 days; 3 weeks after treatment
From the text: as §9, §10

[17] = test system: Abutilon avicennae; test: Herbicidal effect test by foliage treatment; assay type: in vivo; conditions: 1.6 g/a; foliage treatment after growth of 14 days; 3 weeks after treatment
From the text: as §9, §10

[18] = test system: Amaranthus retroflexus; test: Herbicidal effect test by foliage treatment; assay type: in vivo; conditions: 1.6 g/a; foliage treatment after growth of 14 days; 3 weeks after treatment
From the text: as §9, §10

[19] = test system: Scirpus juncoides; test: Herbicidal effect test in submerged condition by treatment during weed-growth stage (1); assay type: in vivo; conditions: 0.64 g/a, treated at 1st to 2nd leaf stage, 3 weeks after treatment
Protocol: (§11) Herbicidal Effect Test in Submerged Condition by Treatment During Weed-Growth Stage (1) After alluvial soil was placed in a styrol cup of 1/30000 are, water was poured therein and mixed, and adjusted to a submerged condition of water depth 4 cm. After seeds of Echinochloa crus-galli, Scirpus juncoides and Monochoria vaginalis were sown in the cup, the plants were grown by putting the cup in a green house at 25 to 30° C. When Echinochloa crus-galli, Scirpus juncoides and Monochoria vaginalis reached 1st to 2nd leaf stage, the wettable powder of the present invention prepared according to Formulation Example 1 was diluted with water so as to give a predetermined formulation amount, and the surface of the water was treated with the diluted wettable powder. The herbicidal effect for each plant was investigated 3 weeks after treatment with the herbicide according to the criteria indicated in Test Example 1.

[20] = test system: Echinochloa crus-galli; test: as above; assay type: in vivo; conditions: 0.64 g/a, treated at 1st to 2nd leaf stage, 3 weeks after treatment
Protocol: as §11

[21] = test system: Monochoria vaginalis; test: as above; assay type: in vivo; conditions: 0.64 g/a, treated at 1st to 2nd leaf stage, 3 weeks after treatment
Protocol: as §11

[22] = test system: direct sown rice; test: Herbicidal effect test by foliage treatment; assay type: in vivo, Oryza sativa; conditions: 1.6 g/a; foliage treatment after growth of 14 days; 3 weeks after treatment
From the text: as §9, §10

[23] = test system: Beta vulgaris (beet); test: Herbicidal effect test by soil treatment; assay type: in vivo; conditions: 1.6 g/a, 3 weeks after treatment
From the text: (§12) Herbicidal Effect Test by Soil Treatment
(§13) Sterilized diluvial soil was placed in a plastic box having a size of length 21 cm, width 13 cm and depth 7 cm, seeds Echinochloa crus-galli, Digitaria adscendes, Setaria viridis, Avena fatua, Black-grass, Abutilon avicennae, Ambrosia elatior, Amaranthus retroflexus, Chenopodium album, Polygonum blumei, Stellaria media, Zea mays (corn), Glycine max (soybean), Oryza sativa (rice), Triticum aestivum (wheat) and Beta vulgaris (beat) were sown interspatially, covered with about 1.5 cm of soil, and then the wettable powder of the present invention prepared according to Formulation Example 1 was diluted with water so as to give a predetermined formulation amount, and the surface of the soil was uniformly treated with the diluted wettable powder by use of a small-sized spray. The herbicidal effect for each plant was investigated 3 weeks after treatment with the herbicide according to the criteria indicated in Test Example 1.

[24] = test system: corn (Zea mays); test: Herbicidal effect test by soil treatment; assay type: in vivo; conditions: 1.6 g/a, 3 weeks after treatment
From the text: as §12, §13

[25] = test system: Setaria viridis; test: Herbicidal effect test by soil treatment; assay type: in vivo; conditions: 1.6 g/a, 3 weeks after treatment
From the text: as §12, §13

[26] = test system: Polygonum blumei; test: Herbicidal effect test by soil treatment; assay type: in vivo; conditions: 1.6 g/a, 3 weeks after treatment
From the text: as §12, §13

[27] = test system: soybean (Glycine max); test: Herbicidal effect test by soil treatment; assay type: in vivo; conditions: 1.6 g/a, 3 weeks after treatment
From the text: as §12, §13

[28] = test system: Stellaria media; test: Herbicidal effect test by soil treatment; assay type: in vivo; conditions: 1.6 g/a, 3 weeks after treatment
From the text: as §12, §13

[29] = test system: Chenopodium album; test: Herbicidal effect test by soil treatment; assay type: in vivo; conditions: 1.6 g/a, 3 weeks after treatment
From the text: as §12, §13

[30] = test system: Ambrosia elatior; test: Herbicidal effect test by soil treatment; assay type: in vivo; conditions: 1.6 g/a, 3 weeks after treatment
From the text: as §12, §13

[31] = test system: Echinochloa crus-galli; test: Herbicidal effect test by soil treatment; assay type: in vivo; conditions: 1.6 g/a, 3 weeks after treatment
From the text: as §12, §13

[32] = test system: Digitaria adscendes; test: Herbicidal effect test by soil treatment; assay type: in vivo; conditions: 1.6 g/a, 3 weeks after treatment
From the text: as §12, §13

[33] = test system: Abutilon avicennae; test: Herbicidal effect test by soil treatment; assay type: in vivo; conditions: 1.6 g/a, 3 weeks after treatment
From the text: as §12, §13

[34] = test system: Amaranthus retroflexus; test: Herbicidal effect test by soil treatment; assay type: in vivo; conditions: 1.6 g/a, 3 weeks after treatment
From the text: as §12, §13

[35] = test system: direct sown rice; test: Herbicidal effect test by soil treatment; assay type: in vivo, Oryza sativa; conditions: 1.6 g/a, 3 weeks after treatment
From the text: as §12, §13

## COc1cc(OC)nc(NC(=O)NS(=O)(=O)c2c(C3=NOCC(CI)O3)c(Cl)nn2C)n1 (centres unmarked) [Compound 2, N-((4,6-dimethoxypyrimidin-2-yl)aminocarbonyl)-3-chloro-4-(5-iodomethyl-5H,6H-1,4,2-dioxadin-3-yl)-1-methylpyrazole-5-sulfonamide]
[1]
  herbicidal effect, B: Scirpus juncoides: 5 (Herbicidal rate 90% or more (almost complete death))
[2]
  herbicidal effect, A: Echinochloa crus-galli: 4 (Herbicidal rate 70% or more and less than 90%)
[3]
  herbicidal effect, C: Monochoria vaginalis: 5 (Herbicidal rate 90% or more (almost complete death))
[4]
  herbicidal effect, f: Beta vulgaris (beet): 4 (Herbicidal rate 70% or more and less than 90%)
[5]
  herbicidal effect, b: corn (Zea mays): 4 (Herbicidal rate 70% or more and less than 90%)
[6]
  herbicidal effect, E: Setaria viridis: 1 (Herbicidal rate 5% or more and less than 20%)
[7]
  herbicidal effect, L: Polygonum blumei: 0 (Herbicidal rate 5% or less (little effect))
[8]
  herbicidal effect, c: soybean (Glycine max): 4 (Herbicidal rate 70% or more and less than 90%)
[9]
  herbicidal effect, e: Triticum aestivum (wheat): 0 (Herbicidal rate 5% or less (little effect))
[10]
  herbicidal effect, F: Avena fatua: 0 (Herbicidal rate 5% or less (little effect))
[11]
  herbicidal effect, M: Stellaria media: 5 (Herbicidal rate 90% or more (almost complete death))
[12]
  herbicidal effect, G: Black-grass: 1 (Herbicidal rate 5% or more and less than 20%)
[13]
  herbicidal effect, K: Chenopodium album: 4 (Herbicidal rate 70% or more and less than 90%)
[14]
  herbicidal effect, I: Ambrosia elatior: 4 (Herbicidal rate 70% or more and less than 90%)
[15]
  herbicidal effect, A: Echinochloa crus-galli: 3 (Herbicidal rate 40% or more and less than 70%)
[16]
  herbicidal effect, D: Digitaria adscendes: 1 (Herbicidal rate 5% or more and less than 20%)
[17]
  herbicidal effect, H: Abutilon avicennae: 5 (Herbicidal rate 90% or more (almost complete death))
[18]
  herbicidal effect, J: Amaranthus retroflexus: 0 (Herbicidal rate 5% or less (little effect))
[19]
  herbicidal effect, B: Scirpus juncoides: 4 (Herbicidal rate 70% or more and less than 90%)
[20]
  herbicidal effect, A: Echinochloa crus-galli: 2 (Herbicidal rate 20% or more and less than 40%)
[21]
  herbicidal effect, C: Monochoria vaginalis: 4 (Herbicidal rate 70% or more and less than 90%)
[22]
  herbicidal effect, d: direct sown rice: 0 (Herbicidal rate 5% or less (little effect))
[23]
  herbicidal effect, f: Beta vulgaris (beet): 2 (Herbicidal rate 20% or more and less than 40%)
[24]
  herbicidal effect, b: corn (Zea mays): 0 (Herbicidal rate 5% or less (little effect))
[25]
  herbicidal effect, E: Setaria viridis: 0 (Herbicidal rate 5% or less (little effect))
[26]
  herbicidal effect, L: Polygonum blumei: 0 (Herbicidal rate 5% or less (little effect))
[27]
  herbicidal effect, c: soybean (Glycine max): 0 (Herbicidal rate 5% or less (little effect))
[28]
  herbicidal effect, M: Stellaria media: 3 (Herbicidal rate 40% or more and less than 70%)
[29]
  herbicidal effect, K: Chenopodium album: 4 (Herbicidal rate 70% or more and less than 90%)
[30]
  herbicidal effect, I: Ambrosia elatior: 3 (Herbicidal rate 40% or more and less than 70%)
[31]
  herbicidal effect, A: Echinochloa crus-galli: 0 (Herbicidal rate 5% or less (little effect))
[32]
  herbicidal effect, D: Digitaria adscendes: 0 (Herbicidal rate 5% or less (little effect))
[33]
  herbicidal effect, H: Abutilon avicennae: 0 (Herbicidal rate 5% or less (little effect))
[34]
  herbicidal effect, J: Amaranthus retroflexus: 1 (Herbicidal rate 5% or more and less than 20%)
[35]
  herbicidal effect, d: direct sown rice: 0 (Herbicidal rate 5% or less (little effect))
